Reference: ChEMBL document CHEMBL3085689, “Targeting the hydrophobic region of Hsp90's ATP binding pocket with novel 1,3,5-triazines” (Bioorg Med Chem Lett, 2013)
Calls of active or inactive are those of the source. The calls are words filed in the database; no cut-off is given here.

What was measured:
NCI-H1975 = test: Antiproliferative activity against gefitinib-resistant human NCI-H1975 cells after 72 hrs by MTS assay; format: functional, cell-based
[1] = target: Heat shock protein HSP 90-beta (Homo sapiens) (UniProt P08238); test: Inhibition of HSP90 in human H1975 cells assessed as upregulation of Hsp70 at 100 uM after 24 hrs by Western blotting analysis; format: cell-based
Chain of Heat shock protein HSP 90-beta (Homo sapiens) (P08238 whole entry, the tested form may be a part): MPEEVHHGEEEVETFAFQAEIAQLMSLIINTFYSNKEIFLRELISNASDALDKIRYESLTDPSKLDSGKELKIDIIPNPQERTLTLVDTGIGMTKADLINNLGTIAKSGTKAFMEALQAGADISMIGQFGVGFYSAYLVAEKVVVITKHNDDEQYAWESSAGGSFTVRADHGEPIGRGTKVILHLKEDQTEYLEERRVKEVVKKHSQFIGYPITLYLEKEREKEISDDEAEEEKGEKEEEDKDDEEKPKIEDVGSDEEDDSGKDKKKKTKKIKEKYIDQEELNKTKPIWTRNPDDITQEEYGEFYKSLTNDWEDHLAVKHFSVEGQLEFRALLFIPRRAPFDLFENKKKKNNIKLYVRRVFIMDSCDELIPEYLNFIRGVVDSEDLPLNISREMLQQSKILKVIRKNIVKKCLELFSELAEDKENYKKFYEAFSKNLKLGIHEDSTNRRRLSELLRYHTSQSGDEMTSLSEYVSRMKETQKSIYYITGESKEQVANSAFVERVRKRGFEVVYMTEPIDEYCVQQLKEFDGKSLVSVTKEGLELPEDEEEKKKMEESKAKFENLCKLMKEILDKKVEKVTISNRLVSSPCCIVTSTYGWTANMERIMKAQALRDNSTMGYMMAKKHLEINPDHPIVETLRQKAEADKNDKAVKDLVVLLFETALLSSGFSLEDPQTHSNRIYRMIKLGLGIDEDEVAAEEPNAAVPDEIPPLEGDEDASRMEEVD

[2] = target: Heat shock protein HSP 90-beta (Homo sapiens) (UniProt P08238); test: Inhibition of HSP90 in human H1975 cells assessed as reduction of Her2 level at 100 uM after 24 hrs by Western blotting analysis; format: cell-based
[3] = target: Heat shock protein HSP 90-beta (Homo sapiens) (UniProt P08238); test: Inhibition of HSP90 in human H1975 cells assessed as reduction of Met level at 100 uM after 24 hrs by Western blotting analysis; format: cell-based
[4] = target: Heat shock protein HSP 90-beta (Homo sapiens) (UniProt P08238); test: Inhibition of HSP90 in human H1975 cells assessed as reduction of Met level after 24 hrs by densitometric analysis; format: cell-based
[5] = target: Heat shock protein HSP 90-beta (Homo sapiens) (UniProt P08238); test: Inhibition of HSP90 in human H1975 cells assessed as reduction of Her2 level at 50 to 100 uM after 24 hrs by densitometric analysis; format: cell-based
[6] = target: Heat shock protein HSP 90-alpha (Homo sapiens, UniProt P07900); test: Inhibition of recombinant human Hsp90alpha ATP-binding pocket of N-terminal domain after 4 hrs by fluorescence polarization assay
[7] = target: Heat shock protein HSP 90-beta (Homo sapiens) (UniProt P08238); test: Inhibition of HSP90 in human H1975 cells assessed as upregulation of Hsp70 after 24 hrs by densitometric analysis; format: cell-based
[8] = target: Heat shock protein HSP 90-beta (Homo sapiens) (UniProt P08238); test: Inhibition of HSP90 in human H1975 cells assessed as reduction of Her2 level after 24 hrs by densitometric analysis; format: cell-based
[9] = target: Heat shock protein HSP 90-beta (Homo sapiens) (UniProt P08238); test: Inhibition of HSP90 in human H1975 cells assessed as reduction of Akt level at 100 uM after 24 hrs by Western blotting analysis; format: cell-based
[10] = target: Heat shock protein HSP 90-beta (Homo sapiens) (UniProt P08238); test: Inhibition of HSP90 in human H1975 cells assessed as reduction of Akt level after 24 hrs by densitometric analysis; format: cell-based

Row | Structure (SMILES) | Activity (NCI-H1975) | Activity [1] | Activity [2] | Activity [3] | other results
1 | Nc1nc(Cl)nc(Nc2ccccc2)n1 | Dose-dependent effect |  |  |  | 
2 | Nc1nc(Cl)nc(Nc2ccc(O)cc2)n1 | Dose-dependent effect |  |  |  | 
3 | COc1ccc(COc2nc(N)nc(Cl)n2)cc1 | Dose-dependent effect | inactive | inactive | inactive | 
4 | COc1cc(COc2nc(N)nc(Cl)n2)cc(OC)c1OC | Dose-dependent effect |  |  |  | 
5 | Cc1cccc(C)c1Oc1nc(N)nc(Cl)n1 | Dose-dependent effect | Active | Active | Active | Activity [4]: Dose-dependent effect; Activity [5]: Active; IC50 [6]: 5 µM; Ki [6]: 2.8 µM; Activity [7]: Dose-dependent effect; Activity [8]: Dose-dependent effect; Activity [9]: Active; Activity [10]: Dose-dependent effect
6 | Nc1nc(Cl)nc(Nc2ccccc2Cl)n1 | Dose-dependent effect |  |  |  | 
7 | COc1ccc(Oc2nc(N)nc(Cl)n2)cc1 | Dose-dependent effect | Active | Active | Active | Activity [9]: Active
